pIC50: −log10 of the molar value.
Target: benzodiazepine binding site on GABAA receptors
Test: In vitro inhibition of 3H-flunitrazepam (3H-FNM) binding
Design: species or system rat
Conditions: inhibition of specific binding of 3H-FNM (1 nM), cerebral cortex membranes from male Wistar rats, 40 min at 2° C.
Description: In Vitro Inhibition of ^3H-flunitrazepam (^3H-FNM) Binding
The GABA recognition site and the benzodiazepine modulatory unit can selectively be labelled with ^3H-flunitrazepam.
Preparations are performed at 0-4° C. unless otherwise indicated. Cerebral cortex from male Wistar rats (150-200 g) is homogenised for 5-10 sec in 20 ml Tris-HCl (30 mM, pH 7.4) using an Ultra-Turrax homogeniser. The suspension is centrifuged at 27,000×g for 15 min and the pellet is washed three times with buffer (centrifuged at 27,000×g for 10 min). The washed pellet is homogenized in 20 ml of buffer and incubated on a water bath (37° C.) for 30 min to remove endogenous GABA and then centrifuged for 10 min at 27,000×g. The pellet is then homogenized in buffer and centrifuged for 10 min at 27,000×g. The final pellet is resuspended in 30 ml buffer and the preparation is frozen and stored at −20° C.
The membrane preparation is thawed and centrifuged at 2° C. for 10 min at 27,000×g. The pellet is washed twice with 20 ml 50 mM Tris-citrate, pH 7.1 using an Ultra-Turrax homogeniser and centrifuged for 10 min at 27,000×g. The final pellet is resuspended in 50 mM Tris-citrate, pH 7.1 (500 ml buffer per g of original tissue), and then used for binding assays. Aliquots of 0.5 ml tissue are added to 25 μl of test solution and 25 μl of ^3H-FNM (1 nM, final concentration), mixed and incubated for 40 min at 2° C. Non-specific binding is determined using Clonazepam (1 μM, final concentration). After incubation the samples are added 5 ml of ice-cold buffer and poured directly onto Whatman GF/C glass fibre filters under suction and immediately washed with 5 ml ice-cold buffer. The amount of radioactivity on the filters is determined by conventional liquid scintillation counting. Specific binding is total binding minus non-specific binding.
25-75% inhibition of specific binding must be obtained, before calculation of an IC50.
The test value will be given as IC50 (the concentration (μM) of the test substance which inhibits the specific binding of ^3H-FNM by 50%). IC50=(applied test substance concentration, […]

SMILES	pIC50
NCc1ccc2c(c1)ncn2-c1cccc(-c2nccs2)c1 [C-[1-(3-Thiazol-2-yl-phenyl)-1H-benzoimidazol-5-yl]-methylamine]	7.96
CC(=O)NCc1ccc2c(c1)ncn2-c1cccc(-c2nccs2)c1 [N-[1-(3-Thiazol-2-yl-phenyl)-1H-benzoimidazol-5-ylmethyl]-acetamide]	7.62
O=CNCc1ccc2c(c1)ncn2-c1cccc(-c2nccs2)c1 [N-{1-[3-(Thiazol-2-yl)-phenyl]-1H-benzoimidazol-5-ylmethyl}-formamide]	8.32
